Laboratory results taken from patent US20260102359A1, “COMBINATION TREATMENT OF DERMAL AND TRANSDERMAL FIBROTIC DISEASES, DISORDERS AND ASSOCIATED PAIN AND INFLAMMATION” (ERESINA, LLC, priority 2022, published 2026).
Where a name gives a salt, the structure may show the parent alone.

Tested on: hDMFa myofibroblast cells

CC[C@H](C)C(=O)O[C@H]1CCC=C2C=C[C@H](C)[C@H](CC[C@@H]3C[C@@H](O)CC(=O)O3)[C@H]21 [Cmpd 668, Mevastatin]
Compound Myofibroblast Cytotoxicity Activity: +++

Clc1ccc(COC(Cn2ccnc2)c2ccc(Cl)cc2Cl)c(Cl)c1 (stereo not shown) [Cmpd 671, Miconazole]
Compound Myofibroblast Cytotoxicity Activity: +++

Clc1ccc(COC(Cn2ccnc2)c2ccc(Cl)cc2Cl)c(Cl)c1 (stereo not shown) [Cmpd 672, Miconazole Nitrate]
Compound Myofibroblast Cytotoxicity Activity: +++

COc1ccc(OC)c(C(O)CNC(=O)CN)c1 (stereo not shown) [Cmpd 673, Midodrine (hydrochloride)]
Compound Myofibroblast Cytotoxicity Activity: ++++

CO[C@@H]1[C@H](N(C)C(=O)c2ccccc2)C[C@H]2O[C@]1(C)n1c3ccccc3c3c4c(c5c6ccccc6n2c5c31)C(=O)NC4 [Cmpd 674, Midostaurin (PKC412)]
Compound Myofibroblast Cytotoxicity Activity: ++

CCN(CC)C(=O)C1(c2ccccc2)CC1CN (stereo not shown) [Cmpd 676, Milnacipran HCl]
Compound Myofibroblast Cytotoxicity Activity: ++++

CCCCCCCCCCCCCCCCOP(=O)([O-])OCC[N+](C)(C)C [Cmpd 677, Miltefosine]
Compound Myofibroblast Cytotoxicity Activity: +++++

N=c1nc(N2CCCCC2)cc(N)n1OS(=O)(=O)O [Cmpd 678, Minoxidil sulphate]
Compound Myofibroblast Cytotoxicity Activity: ++

CN1CCN2c3ncccc3Cc3ccccc3C2C1 (stereo not shown) [Cmpd 679, Mirtazapine]
Compound Myofibroblast Cytotoxicity Activity: ++++

Clc1ccc(C(c2ccccc2Cl)C(Cl)Cl)cc1 (stereo not shown) [Cmpd 681, Mitotane (Lsodren)]
Compound Myofibroblast Cytotoxicity Activity: +++

O=C1c2c(O)ccc(O)c2C(=O)c2c(NCCNCCO)ccc(NCCNCCO)c21 [Cmpd 682, Mitoxantrone HCl]
Compound Myofibroblast Cytotoxicity Activity: +++++

COc1cc(Nc2ncc3c(n2)-c2ccc(Cl)cc2C(c2c(F)cccc2OC)=NC3)ccc1C(=O)O [Cmpd 685, MLN8237 (Alisertib)]
Compound Myofibroblast Cytotoxicity Activity: ++++

O=c1c(-n2ccnn2)c[nH]n1-c1cc(N2CCOCC2)ncn1 [Cmpd 687, Molidustat (BAY85-3934)]
Compound Myofibroblast Cytotoxicity Activity: +++

C[C@@H]1C[C@H]2[C@@H]3CCC4=CC(=O)C=C[C@]4(C)[C@@]3(Cl)[C@@H](O)C[C@]2(C)[C@@]1(OC(=O)c1ccco1)C(=O)CCl [Cmpd 688, Mometasone furoate]
Compound Myofibroblast Cytotoxicity Activity: ++

CC(C)(O)c1ccccc1CC[C@@H](SCC1(CC(=O)O)CC1)c1cccc(/C=C/c2ccc3ccc(Cl)cc3n2)c1 [Cmpd 689, Montelukast Sodium]
Compound Myofibroblast Cytotoxicity Activity: +++++

CCCN(CCC)C(=O)C1=Cc2ccc(-c3ccc(C(=O)N4CCCC4)cc3)cc2N=C(N)C1 [Cmpd 690, Motolimod (VTX-2337)]
Compound Myofibroblast Cytotoxicity Activity: ++

O[C@H]1[C@H](O)[C@@H](O)[C@H](O)[C@@H](O)[C@H]1O [Cmpd 692, myo-Inositol]
Compound Myofibroblast Cytotoxicity Activity: ++++

CC(=O)N[C@@H](CS)C(=O)O [Cmpd 695, N-Acetyl-L-cysteine]
Compound Myofibroblast Cytotoxicity Activity: +

CN(C/C=C/c1ccccc1)Cc1cccc2ccccc12 [Cmpd 696, Naftifine HCl]
Compound Myofibroblast Cytotoxicity Activity: ++

COc1ccccc1N1CCN(CC(O)COc2cccc3ccccc23)CC1 (stereo not shown) [Cmpd 697, Naftopidil]
Compound Myofibroblast Cytotoxicity Activity: +++

COc1ccc([C@@H]2CC(=O)c3c(O)cc(O[C@@H]4O[C@H](CO)[C@@H](O)[C@H](O)[C@H]4O[C@@H]4O[C@@H](C)[C@H](O)[C@@H](O)[C@H]4O)cc3O2)cc1O [Cmpd 702, Neohesperidin]
Compound Myofibroblast Cytotoxicity Activity: ++

NC(=O)c1cccnc1 [Cmpd 705, Niacinamide]
Compound Myofibroblast Cytotoxicity Activity: +

COC(=O)C1=C(C)NC(C)=C(C(=O)OCCN(C)Cc2ccccc2)C1c1cccc([N+](=O)[O-])c1 (stereo not shown) [Cmpd 706, Nicardipine HCl]
Compound Myofibroblast Cytotoxicity Activity: +++

CO[C@]12C[C@@H](COC(=O)c3cncc(Br)c3)CN(C)[C@@H]1Cc1cn(C)c3cccc2c13 [Cmpd 707, Nicergoline]
Compound Myofibroblast Cytotoxicity Activity: ++

O=C(Nc1ccc([N+](=O)[O-])cc1Cl)c1cc(Cl)ccc1O [Cmpd 708, Niclosamide]
Compound Myofibroblast Cytotoxicity Activity: ++
